Assay results as given in patent US20140154182A1 (priority 2011, published 2014).

Legend:
physchem = assay type: physicochemical; conditions: 1-octanol / 0.2M phosphate buffer pH 7.4, room temperature, triplicate; read-out: LogDoct,7.4
Experimental: The distribution of the radio labeled compounds between 1-octanol and 0.2M phosphate buffer (pH=7.4) was measured in triplicate at room temperature. Briefly, 1 mL of a 20 MBq/mL solution of the radio labeled compound in 0.2M phosphate buffer (pH=7.4) was vigorously mixed with 1 mL of 1-octanol for 1 min at room temperature using a vortex. After a settling period of 30 min, five samples of 100 μL were taken from both layers. For determining recovery, 5 samples of 100 μL were taken from the 20 MBq/mL solution. All samples were counted for radioactivity. The LogDoct,7.4 value was calculated according to LogDoct,7.4=^10Log(Aoct/Abuffer), where Aoct and Abuffer represent the average radioactivity counted of the 5 1-octanol and 5 buffer samples, respectively.

[1] = assay type: in vivo, B6C3 mice; conditions: for organ with the highest uptake: 5 min following tracer injection, blood, heart, lungs, liver, kidney; for DAR (differential absorption ratio), cerebellum / DAR (differential absorption ratio), cerebral cortex / DAR (differential absorption ratio), hippocampus / DAR (differential absorption ratio), prefrontal cortex / DAR (differential absorption ratio), striatum: 5 min post-injection, i.v.; for DAR (differential absorption ratio), cerebellum / DAR (differential absorption ratio), cerebral cortex / DAR (differential absorption ratio), hippocampus / DAR (differential absorption ratio), prefrontal cortex / DAR (differential absorption ratio), striatum / time of highest ratio of radioactivity uptake between forebrain regions and the cerebellum: mice; for clearance of radioactivity from the brain: mouse, in vivo; for time of highest ratio of radioactivity uptake between forebrain regions and the cerebellum: post-injection
Experimental: Male, 7-9 weeks old, B6C3 mice were used in all experiments. Animals were anaesthetized with an i.p. injection of Hypnorm/dormicum (12 ml/kg), after which [^18F]PK209 (as prepared in Example 26) (19.0±1.1 MBq at t0) or [^11C]PK083 (as prepared in Example 22) (24.4±3.5 MBq at t0) was administered via the tail vein, in a saline solution containing 10% ethanol (5 ml/kg). Following the injections, mice were killed by cervical dislocation at 5, 10, 30, or 60 min (n=4−6). At each time point, blood was obtained by heart punctures and selected organs, including the heart, liver, kidneys, lungs and brain were removed. The brain was further dissected into prefrontal cortex, striatum, cerebral cortex, hippocampus and cerebellum. All organs and brain areas were weighed, and recovered radioactivity was determined with a Compugamma (LKB Wallac), using 5×10 μl aliquots of the injected formulation as standard. Results are expressed as the differential absorption ratio (DAR): (cpm recovered/g tissue)/(cpm injected/g body weight). Two-way repeated measures ANOVA, followed by LSD post-hoc analysis was used for between-region (or organ) comparisons of radiotracer uptake at different time points.

NMDA receptors = test: Ex vivo autoradiography and MK-801 blocking study; assay type: in vivo, mice
Experimental: To visualize the distribution and specificity of [^18F]PK209 or [^11C]PK083 for NMDA receptors, anaesthetized mice were injected with either saline or MK-801 (0.6 mg/kg, i.p.), 10 min before a tail-vein injection of each of the radiolabeled compounds (n=2). 5 min following injection of [^11C]PK083 or 15 min after [^18F]PK209 injection, mice were killed by cervical dislocation, and their brains were removed, frozen in liquid nitrogen and processed for quantitative autoradiography. Briefly, 20 μm coronal brain sections were cut at 300 μm intervals, from rostral to caudal areas. Sections from each mouse were opposed to Kodak Biomax MR-1 film, either immediately or following 2×30 sec washes in ice-cold Tris-HCl buffer (pH 7.4) and a dip in ice-cold demi water. Films were developed after 24 hr, and relevant optical density (ROD) values were obtained using the MCID software. Sections from control and MK-801 treated mice were processed in parallel. All brain regions were identified by reference to the mouse atlas of Franklin and Paxinos (2001).
Reference is made to FIG. 3. […] FIG. 3A the [^18F]209 specific binding (relevant optical density) is shown for (from left to right) frontal cortex, striatum, hippocampus, cerebral cortex and cerebellum. In FIG. 3B representative images are shown for (from bottom to top) cerebellum, hippocampus, striatum, cerebral cortex and frontal cortex.
Specific binding was defined as that […] pretreatment with MK-801 (0.6 mg/kg i.p.). […] Specific [^18F]PK-209 binding constituted 10% and 8% of total binding values in the hippocampus and the cerebral cortex, respectively.

NMDAR ion channel = test: Competition binding assay against [3H]MK-801 in rat forebrain membranes; conditions: against 5 nM [3H]MK-801; mean±SEM of 2-6 independent determinations, each in triplicate
Experimental: Male Wistar rats (150-200 g) were killed by decapitation. The forebrains were rapidly removed and homogenized using a DUALL tissue homogenizer (10 strokes, 2000 rpm), in a 7-fold excess (v/w) of ice-cold 0.25 M sucrose. The nuclei and cell debris were removed by centrifugation (10 min x 400×g) in a Sorvall RC-6 refrigerated centrifuge (rotor SA600). The supernatant was decanted and the resulting pellet was rehomogenized in 5 vol 0.25 M sucrose and recentrifuged. The combined supernatants were diluted in Tris-acetate buffer (50 mM, pH 7.4) to a final dilution of 40 v/w, and centrifuged for 30 min×30,000×g, in order to obtain membranes from the cell surface, mitochondrial, and microsomal fractions. The pellet was resuspended in 20 vol of 50 mM Tris buffer containing 0.04% Triton X-100 (pH 7.4), and was kept at 25° C. for 2 hr before recentrifugation. The resulting pellet was suspended in Tris-HCl buffer (dilution 4, pH 7.4) and stored at −80° C. in 5 ml aliquots. On the day of each experiment, membranes were thawed to room temperature and washed twice by centrifugation (30 min×200,000×g). After the final centrifugation step, pellets were suspended in 50 mM Tris-HCl buffer (pH 7.4) and further diluted to 40 vol of buffer per g original weight wet tissue for competition binding experiments.
Protein concentration was determined using the BCA protein kit (Sigma-Aldrich, The Netherlands).
In vitro competition binding experiments were performed using 5 nM [^3H]MK-801 (specific activity 22.5 Ci/mmol; PerkinElmer, USA). All compounds as prepared in the Examples and listed in Table 2 were dissolved as 10 mM stock solutions in DMSO, and used in a concentration range from 10^−4 to 10^−12 M, with a maximal DMSO concentration of 1%. Competition binding experiments were conducted at room temperature, in a final volume of 500 μl assay buffer (50 mM Tris-HCl, pH 7.4), containing 1 μM L-glutamate and glycine. The incubation mixture was composed of 400 μl membrane suspension (protein concentration 1 μg/μL), 50 μL [^3H]MK-801, 45 μl assay buffer and 5 μl unlabeled drug solution. Nonspecific binding was determined in the presence of 30 μM GMOM. Incubations were terminated overnight by filtration, using a 48-well Brandel harvester and Whatman GF/B filters, presoaked in 0.3% polyethyleneimine. The filters were washed three times with 3 ml of ice-cold Tris-HCl buffer (pH 7.4), and radioactivity was subsequently determined by liquid scintillation spectrometry in 5 mL of Optiphase-HiSafe 3, at an efficiency of 40%.
Ki values were determined by nonlinear regression analysis using the equation: log EC50=log [10̂log Ki*(1+RadioligandNM/HotKdNM)], (GraphPad Software Inc., San Diego, Calif.).
In this table the Ki for the different compounds is stated. The Ki as measured against 5 nM [^3H]MK-801 and represent the mean±SEM Ki values of 2-6 independent determinations, each conducted in triplicate, The indexes (b), (c) and (d) describe the form in which the compound was tested: (b) fumaric acid salt, (c) free base, (d) hydrochloric acid salt.

[2] = quantitative autoradiography, relevant optical density

CSc1ccc(Cl)c(NC(=N)N([11CH3])c2cccc(OC(F)F)c2)c1 [[^11C]PK083, 1-(2-chloro-5-(methylthio)phenyl)-3-^11C-methyl-3-(3-(difluoromethoxy)phenyl)guanidine]
logD (physchem): 1.76 ± 0.01
organ with the highest uptake [1]: lungs
DAR (differential absorption ratio), cerebellum [1]: 0.55±0.07
DAR (differential absorption ratio), cerebral cortex [1]: 0.83±0.11
DAR (differential absorption ratio), hippocampus [1]: 1.41±0.46
DAR (differential absorption ratio), prefrontal cortex [1]: 0.96±0.16
DAR (differential absorption ratio), striatum [1]: 0.86±0.13
clearance of radioactivity from the brain [1]: rapidly cleared
time of highest ratio of radioactivity uptake between forebrain regions and the cerebellum [1]: 5 min

CSc1ccc(Cl)c(NC(=N)N(C)c2cccc(OC[18F])c2)c1 [[^18F]PK209]
logD (physchem): 1.45 ± 0.02
organ with the highest uptake [1]: lungs
DAR (differential absorption ratio), cerebellum [1]: 0.84±0.09
DAR (differential absorption ratio), cerebral cortex [1]: 1.17±0.07
DAR (differential absorption ratio), hippocampus [1]: 1.05±0.09
DAR (differential absorption ratio), prefrontal cortex [1]: 1.19±0.10
DAR (differential absorption ratio), striatum [1]: 1.19±0.15
clearance of radioactivity from the brain [1]: cleared rapidly
time of highest ratio of radioactivity uptake between forebrain regions and the cerebellum [1]: 15 min
specific binding as share of total binding, cerebral cortex (NMDA receptors; 15 min after injection, MK-801 0.6 mg/kg i.p. pretreatment): 8%
binding level, cerebellum (NMDA receptors; [2]): moderate
binding level, cerebral cortex (NMDA receptors; [2]): high
binding level, frontal cortex (NMDA receptors; [2]): low
binding level, hippocampus (NMDA receptors; [2]): high
binding level, striatum (NMDA receptors; [2]): low

CSc1ccc(Cl)c(NC(=N)Nc2cccc(OC(F)F)c2)c1 [compound 7, 1-(2-chloro-5-(methylthio)phenyl)-3-(3-(difluoromethoxy)phenyl)guanidine]
Ki (NMDAR ion channel): 147 ± 15 nM

CSc1ccc(Cl)c(NC(=N)Nc2cccc(OC(F)(F)F)c2)c1 [compound 8, 1-(2-chloro-5-(methylthio)phenyl)-3-(3-(trifluoromethoxy)phenyl)guanidine]
Ki (NMDAR ion channel): 235 ± 55.5 nM

COc1cccc(N(C)C(=N)Nc2cc(SC)ccc2Cl)c1 [compound 14, reference compound]
Ki (NMDAR ion channel): 21.7 ± 2.2 nM

CSc1ccc(Cl)c(NC(=N)N(C)c2cccc(O)c2)c1 [compound 17, 3-(2-chloro-5-(methylthio)phenyl)-1-(3-hydroxyphenyl)-1-methylguanidine]
Ki (NMDAR ion channel): 551 ± 57.8 nM

CSc1ccc(Cl)c(NC(=N)N(C)c2cccc(OC(F)F)c2)c1 [compound 18, 3-(2-chloro-5-(methylthio)phenyl)-1-(3-(difluoromethoxy)phenyl)-1-methylguanidine]
Ki (NMDAR ion channel): 10 ± 2 nM

CSc1ccc(Cl)c(NC(=N)N(C)c2cccc(OC(F)(F)F)c2)c1 [compound 19, 3-(2-chloro-5-(methylthio)phenyl)-1-methyl-1-(3-(trifluoromethoxy)phenyl)guanidine]
Ki (NMDAR ion channel): 12 ± 2 nM

CSc1ccc(Cl)c(NC(=N)N(C)c2cccc(OC(F)(F)C(F)F)c2)c1 [compound 20, 3-(2-chloro-5-(methylthio)phenyl)-1-methyl-1-(3-(1,1,2,2-tetrafluoroethoxy)phenyl)guanidine]
Ki (NMDAR ion channel): 56.7 ± 6.2 nM

CSc1ccc(Cl)c(NC(=N)N(C)c2cccc(OCCCF)c2)c1 [compound 23, 3-(2-chloro-5-(methylthio)phenyl)-1-(3-(3-fluoropropoxy)phenyl)-1-methylguanidine]
Ki (NMDAR ion channel): 179 ± 39 nM
